Data from ChEMBL document CHEMBL5696439 (Cancer Res, 2010).
The source made the active and inactive calls. The calls are words filed in the database; no cut-off is given here.

Experiments:
[1] = test system: Tyrosine-protein kinase ABL1 (Homo sapiens), P00519 [T315I]; test: Inhibition of recombinant human full-length His-tagged ABL1 T315I mutant expressed in insect cells at 2 uM using Tyr 02 as substrate measured after 1 hr by Z'-LYTE assay relative to control; conditions: Insect cell
[2] = target: Tyrosine-protein kinase receptor UFO (Homo sapiens) (UniProt P30530); test: Inhibition of recombinant human His-tagged AXL (473 to end residues) expressed in insect cells at 2 uM using Tyr 06 as substrate measured after 1 hr by Z'-LYTE assay relative to control; conditions: Insect cell
Sequence of Tyrosine-protein kinase receptor UFO (Homo sapiens) (P30530 whole entry, the tested form may be a part): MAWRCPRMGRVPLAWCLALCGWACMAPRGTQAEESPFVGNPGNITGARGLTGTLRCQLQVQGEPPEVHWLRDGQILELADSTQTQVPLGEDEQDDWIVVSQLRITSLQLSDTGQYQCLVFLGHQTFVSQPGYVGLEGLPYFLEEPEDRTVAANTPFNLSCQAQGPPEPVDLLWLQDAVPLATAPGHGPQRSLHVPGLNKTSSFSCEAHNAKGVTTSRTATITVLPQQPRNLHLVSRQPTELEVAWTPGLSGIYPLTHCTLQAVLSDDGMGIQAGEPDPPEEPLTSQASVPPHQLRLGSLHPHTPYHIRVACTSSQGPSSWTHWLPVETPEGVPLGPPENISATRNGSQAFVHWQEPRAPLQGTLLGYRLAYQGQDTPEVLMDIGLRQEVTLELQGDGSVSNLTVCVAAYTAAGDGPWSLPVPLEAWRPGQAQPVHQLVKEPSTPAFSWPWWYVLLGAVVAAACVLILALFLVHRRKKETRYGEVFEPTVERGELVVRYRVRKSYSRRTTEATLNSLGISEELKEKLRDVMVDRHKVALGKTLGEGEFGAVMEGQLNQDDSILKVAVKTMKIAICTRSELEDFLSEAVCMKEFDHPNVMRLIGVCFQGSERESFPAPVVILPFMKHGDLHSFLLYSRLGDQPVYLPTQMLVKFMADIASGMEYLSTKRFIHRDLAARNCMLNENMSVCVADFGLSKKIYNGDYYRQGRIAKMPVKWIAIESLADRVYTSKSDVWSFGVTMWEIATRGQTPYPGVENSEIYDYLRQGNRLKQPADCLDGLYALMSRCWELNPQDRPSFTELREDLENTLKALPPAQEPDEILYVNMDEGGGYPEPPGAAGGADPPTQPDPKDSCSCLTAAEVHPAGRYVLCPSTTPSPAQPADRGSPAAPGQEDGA

[3] = target: Serine/threonine-protein kinase MRCK beta (Homo sapiens) (UniProt Q9Y5S2); test: Inhibition of recombinant human His-tagged CDC42BPB (1-473 residues) expressed in baculovirus expression system at 2 uM using Ser/Thr 13 as substrate measured after 1 hr by Z'-LYTE assay relative to control
[4] = target: Cyclin-dependent kinase 1/cyclin B1 (Homo sapiens) (UniProt P06493+P14635); test: Inhibition of recombinant human full-length His-tagged CDK1/cyclin B expressed in insect cells at 2 uM using Ser/Thr 18 as substrate measured after 1 hr by Z'-LYTE assay relative to control; conditions: Insect cell
[5] = test system: Epidermal growth factor receptor (Homo sapiens), P00533 [T790M]; test: Inhibition of recombinant human GST-tagged EGFR T790M mutant (668-1210 residues) expressed in insect cells at 2 uM using Tyr 04 as substrate measured after 1 hr by Z'-LYTE assay relative to control; conditions: Insect cell
[6] = target: G protein-coupled receptor kinase 6 (Homo sapiens) (UniProt P43250); test: Inhibition of recombinant human full-length GST-tagged GRK6 expressed in insect cells at 2 uM using Ser/Thr 16 as substrate measured after 1 hr by Z'-LYTE assay relative to control; conditions: Insect cell
Sequence of G protein-coupled receptor kinase 6 (Homo sapiens) (P43250 whole entry, looked up): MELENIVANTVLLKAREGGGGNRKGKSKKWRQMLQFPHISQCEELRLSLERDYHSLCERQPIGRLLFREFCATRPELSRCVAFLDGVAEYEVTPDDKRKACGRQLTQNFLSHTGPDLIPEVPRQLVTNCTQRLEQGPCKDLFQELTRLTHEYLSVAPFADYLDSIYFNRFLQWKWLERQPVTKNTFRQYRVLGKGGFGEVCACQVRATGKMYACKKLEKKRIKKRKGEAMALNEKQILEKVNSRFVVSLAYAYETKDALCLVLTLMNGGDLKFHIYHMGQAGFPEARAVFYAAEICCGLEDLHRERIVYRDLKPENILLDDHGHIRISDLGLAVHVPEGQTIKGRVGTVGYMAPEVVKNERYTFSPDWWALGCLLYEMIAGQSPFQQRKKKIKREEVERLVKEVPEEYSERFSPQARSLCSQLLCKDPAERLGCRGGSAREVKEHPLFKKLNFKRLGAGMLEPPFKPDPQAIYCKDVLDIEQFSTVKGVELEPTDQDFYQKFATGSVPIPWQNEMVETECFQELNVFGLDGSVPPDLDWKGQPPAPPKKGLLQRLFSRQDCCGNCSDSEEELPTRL

[7] = target: Interleukin-1 receptor-associated kinase 4 (Homo sapiens) (UniProt Q9NWZ3); test: Inhibition of recombinant human full-length His-tagged IRAK4 expressed in insect cells at 2 uM using Ser/Thr 07 as substrate measured after 1 hr by Z'-LYTE assay relative to control; conditions: Insect cell
[8] = target: Tyrosine-protein kinase JAK1 (Homo sapiens) (UniProt P23458); test: Inhibition of recombinant human GST-tagged JAK1 (866-1154 residues) expressed in insect cells at 2 uM using Tyr 06 as substrate measured after 1 hr by Z'-LYTE assay relative to control; conditions: Insect cell
[9] = target: Mitogen-activated protein kinase 8 (Homo sapiens) (UniProt P45983); test: Inhibition of recombinant human full length His-tagged MAPK8 expressed in insect cells at 2 uM using Ser/Thr 04 as substrate measured after 1 hr by Z'-LYTE assay relative to control; conditions: Insect cell
[10] = test system: Hepatocyte growth factor receptor (Homo sapiens), P08581 [M1250T]; test: Inhibition of recombinant human His-tagged MET M1250T mutant (956-1390 residues) expressed in insect cells at 2 uM using Tyr 06 as substrate measured after 1 hr by Z'-LYTE assay relative to control; conditions: Insect cell
[11] = target: Serine/threonine-protein kinase Nek2 (Homo sapiens) (UniProt P51955); test: Inhibition of recombinant human full length His-tagged NEK2 expressed in baculovirus expression system at 2 uM using Ser/Thr 07 as substrate measured after 1 hr by Z'-LYTE assay relative to control
[12] = target: PAS domain-containing serine/threonine-protein kinase (Homo sapiens) (UniProt Q96RG2); test: Inhibition of recombinant human GST-tagged PASK (879-1323 residues) expressed in insect cells at 2 uM using Ser/Thr 07 as substrate measured after 1 hr by Z'-LYTE assay relative to control; conditions: Insect cell
Sequence of PAS domain-containing serine/threonine-protein kinase (Homo sapiens) (Q96RG2 whole entry, the tested form may be a part): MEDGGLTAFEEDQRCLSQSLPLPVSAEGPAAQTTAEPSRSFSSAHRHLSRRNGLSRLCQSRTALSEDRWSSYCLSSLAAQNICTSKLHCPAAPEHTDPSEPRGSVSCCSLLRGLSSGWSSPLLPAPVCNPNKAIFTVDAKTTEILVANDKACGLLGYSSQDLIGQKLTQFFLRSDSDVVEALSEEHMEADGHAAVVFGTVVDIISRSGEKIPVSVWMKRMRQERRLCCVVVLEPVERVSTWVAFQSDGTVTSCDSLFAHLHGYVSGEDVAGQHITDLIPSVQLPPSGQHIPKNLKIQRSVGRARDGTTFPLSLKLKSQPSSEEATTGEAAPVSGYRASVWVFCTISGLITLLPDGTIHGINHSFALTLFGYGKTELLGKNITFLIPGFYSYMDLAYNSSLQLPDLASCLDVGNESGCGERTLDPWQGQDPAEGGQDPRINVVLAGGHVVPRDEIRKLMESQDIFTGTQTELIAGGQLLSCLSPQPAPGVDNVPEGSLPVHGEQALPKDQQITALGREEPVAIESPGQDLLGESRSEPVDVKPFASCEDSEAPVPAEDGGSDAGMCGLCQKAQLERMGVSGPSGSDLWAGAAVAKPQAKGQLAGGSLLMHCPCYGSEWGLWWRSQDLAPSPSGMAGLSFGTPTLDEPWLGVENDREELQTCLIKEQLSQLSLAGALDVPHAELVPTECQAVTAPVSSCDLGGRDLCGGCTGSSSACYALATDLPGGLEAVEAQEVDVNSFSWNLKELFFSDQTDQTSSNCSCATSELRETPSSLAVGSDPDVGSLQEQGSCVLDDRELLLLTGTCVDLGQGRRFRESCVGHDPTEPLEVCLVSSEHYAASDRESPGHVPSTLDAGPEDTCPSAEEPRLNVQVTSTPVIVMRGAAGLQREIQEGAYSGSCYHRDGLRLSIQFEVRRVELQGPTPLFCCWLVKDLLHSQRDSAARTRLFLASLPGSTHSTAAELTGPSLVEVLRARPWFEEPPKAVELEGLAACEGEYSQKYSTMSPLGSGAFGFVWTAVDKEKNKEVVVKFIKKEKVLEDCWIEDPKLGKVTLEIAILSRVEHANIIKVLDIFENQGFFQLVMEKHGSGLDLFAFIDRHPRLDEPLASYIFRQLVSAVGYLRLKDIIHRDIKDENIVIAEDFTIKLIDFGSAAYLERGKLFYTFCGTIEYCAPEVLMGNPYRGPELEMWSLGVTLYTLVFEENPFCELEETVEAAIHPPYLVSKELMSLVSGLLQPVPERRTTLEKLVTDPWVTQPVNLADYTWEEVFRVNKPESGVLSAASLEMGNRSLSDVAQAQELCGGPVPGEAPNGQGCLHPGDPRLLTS

[13] = target: Serine/threonine-protein kinase pim-1 (Homo sapiens) (UniProt P11309); test: Inhibition of recombinant human full length His-tagged PIM1 expressed in insect cells at 2 uM using Ser/Thr 07 as substrate measured after 1 hr by Z'-LYTE assay relative to control; conditions: Insect cell
Sequence of Serine/threonine-protein kinase pim-1 (Homo sapiens) (P11309 whole entry, looked up, the tested form may be a part): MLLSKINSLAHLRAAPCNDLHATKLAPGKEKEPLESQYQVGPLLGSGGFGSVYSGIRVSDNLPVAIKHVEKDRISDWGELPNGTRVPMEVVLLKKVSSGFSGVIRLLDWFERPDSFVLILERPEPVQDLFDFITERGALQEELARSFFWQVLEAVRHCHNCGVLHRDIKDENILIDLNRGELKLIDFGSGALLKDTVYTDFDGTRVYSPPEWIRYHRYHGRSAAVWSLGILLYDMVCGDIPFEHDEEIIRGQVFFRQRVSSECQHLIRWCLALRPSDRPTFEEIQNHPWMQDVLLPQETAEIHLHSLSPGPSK

[14] = target: cAMP-dependent protein kinase catalytic subunit alpha (Homo sapiens) (UniProt P17612); test: Inhibition of recombinant human His-tagged PRKACA (1-351 residues) expressed in E.coli at 2 uM using Ser/Thr 01 as substrate measured after 1 hr by Z'-LYTE assay relative to control
[15] = target: Protein kinase C alpha type (Homo sapiens) (UniProt P17252); test: Inhibition of recombinant human full length GST-tagged PRKCA expressed in baculovirus expression system at 2 uM using Ser/Thr 07 as substrate measured after 1 hr by Z'-LYTE assay relative to control
[16] = target: Protein kinase C delta type (Homo sapiens) (UniProt Q05655); test: Inhibition of recombinant human full length GST-tagged PRKCD expressed in baculovirus expression system at 2 uM using Ser/Thr 07 as substrate measured after 1 hr by Z'-LYTE assay relative to control
[17] = target: Proto-oncogene tyrosine-protein kinase receptor Ret (Homo sapiens) (UniProt P07949); test: Inhibition of recombinant human GST-tagged RET (658-1114 residues) expressed in insect cells at 2 uM using Tyr 02 as substrate measured after 1 hr by Z'-LYTE assay relative to control; conditions: Insect cell
Sequence of Proto-oncogene tyrosine-protein kinase receptor Ret (Homo sapiens) (P07949 whole entry, the tested form may be a part): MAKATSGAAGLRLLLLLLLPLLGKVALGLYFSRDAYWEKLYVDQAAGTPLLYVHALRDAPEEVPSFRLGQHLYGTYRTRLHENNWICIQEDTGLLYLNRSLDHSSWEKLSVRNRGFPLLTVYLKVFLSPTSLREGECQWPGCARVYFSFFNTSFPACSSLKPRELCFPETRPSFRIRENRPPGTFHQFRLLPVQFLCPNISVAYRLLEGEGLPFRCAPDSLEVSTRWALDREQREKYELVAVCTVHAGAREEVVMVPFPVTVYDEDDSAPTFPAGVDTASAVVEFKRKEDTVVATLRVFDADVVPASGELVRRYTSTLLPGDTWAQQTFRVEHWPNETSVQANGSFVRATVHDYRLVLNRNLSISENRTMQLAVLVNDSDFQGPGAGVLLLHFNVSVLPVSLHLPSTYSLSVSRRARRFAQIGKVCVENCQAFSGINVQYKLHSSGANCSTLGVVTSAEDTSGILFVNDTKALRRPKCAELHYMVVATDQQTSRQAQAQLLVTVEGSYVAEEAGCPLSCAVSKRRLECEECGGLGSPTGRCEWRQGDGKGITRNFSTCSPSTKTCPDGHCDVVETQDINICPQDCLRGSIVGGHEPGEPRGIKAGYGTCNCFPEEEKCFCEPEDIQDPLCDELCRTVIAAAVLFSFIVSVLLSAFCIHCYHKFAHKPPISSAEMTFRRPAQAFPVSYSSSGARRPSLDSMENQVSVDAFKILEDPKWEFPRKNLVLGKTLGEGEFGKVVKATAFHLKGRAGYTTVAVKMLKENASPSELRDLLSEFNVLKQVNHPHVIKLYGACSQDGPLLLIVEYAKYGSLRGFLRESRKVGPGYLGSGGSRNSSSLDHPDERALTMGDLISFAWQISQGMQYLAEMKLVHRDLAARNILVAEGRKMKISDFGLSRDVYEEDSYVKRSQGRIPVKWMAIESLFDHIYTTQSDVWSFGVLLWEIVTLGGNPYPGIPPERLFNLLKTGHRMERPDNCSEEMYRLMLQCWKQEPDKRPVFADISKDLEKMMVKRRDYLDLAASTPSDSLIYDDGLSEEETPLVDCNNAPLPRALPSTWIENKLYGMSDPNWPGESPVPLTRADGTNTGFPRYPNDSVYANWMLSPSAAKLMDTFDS

MDA-MB-361 [18] = test: Induction of apoptosis in HER2 hyperactive human MDA-MB-361 cells assessed as cell death at 0.001 to 100 micromol/L incubated for 24 hrs by FACS analysis; format: functional, cell-based; conditions: dose 0.001-100 µmol/L
MDA-MB-361 [19] = test: Induction of apoptosis in human MDA-MB-361 cells assessed as PARP cleavage at 0.05 to 5 micromol/L incubated for 48 hrs by Western blot analysis; format: functional, cell-based; conditions: dose 0.05-5 µmol/L
MDA-MB-361 [20] = test: Antitumor activity against human MDA-MB-361 cells assessed as block the accumulation of HIF-1alpha in low oxygen at 0.3 micromol/L incubated for 24 hrs by immunoblot analysis; format: functional, cell-based; conditions: dose 0.3 µmol/L
MDA-MB-361 [21] = test: Antitumor activity against human MDA-MB-361 cells assessed as block the accumulation of HIF-2alpha in low oxygen at 0.3 micromol/L incubated for 24 hrs by immunoblot analysis; format: functional, cell-based; conditions: dose 0.3 µmol/L
HT-29 = test: Antitumor activity against human HT-29 cells xenografted in female nude mouse model assessed as suppression in P-AKT at S473 level at 50 mg/kg, iv administered once a week and measured at least 8 hrs by immunoblot analysis; format: functional, organism-based
MDA-MB-361 [22] = test: Antitumor activity against human MDA-MB-361 cells xenografted in female nude mouse model assessed as substantial regression in tumor at 50 mg/kg, po qd administered as 5 days on/2 days off regimen for 4 cycles; format: functional, organism-based; conditions: time 28.0 day
mTORC2 (Homo sapiens) [23] = target: T1, mTORC2 (Homo sapiens) (UniProt P42345+Q6R327+Q9BVC4+Q9BPZ7); conditions: PC3MM2, dose 0.1-1 µM, time 6.0 hrs
mTORC2 (Homo sapiens) [24] = target: T1, mTORC2 (Homo sapiens); conditions: PC3MM2, dose 0.1-1 µM, time 6.0 hrs; remark: listed apart in the source

CNC(=O)Nc1ccc(-c2nc(N3CC4CCC(C3)O4)c3cnn(C4CCC5(CC4)OCCO5)c3n2)cc1 showed an inhibition [1] of 0%, an inhibition [2] of 2% and an inhibition [3] of 9%. The inhibition [4] was 6%, the inhibition [5] was 2% and the inhibition [6] was -1%. It also gave an inhibition [7] of 3%, an inhibition [8] of 5% and an inhibition [9] of 12%. The inhibition [10] was 1%, the inhibition [11] was 10% and the inhibition [12] was 3%. The inhibition [13] was 1%, the inhibition [14] was -3% and the inhibition [15] was 10%. For the same compound, the inhibition [16] was 16%, the inhibition [17] was 4% and the Activity (MDA-MB-361 [18]) was “Active”. For the same compound, the Activity (MDA-MB-361 [19]) was “Active”, the Activity (MDA-MB-361 [20]) was “Active” and the Activity (MDA-MB-361 [21]) was “Active”. For the same compound, the Activity (HT-29) was “Active”, the Activity (MDA-MB-361 [22]) was “Active” and the inhibition (mTORC2 (Homo sapiens) [23]) was “inactive”. For the same compound, the inhibition (mTORC2 (Homo sapiens) [24]) was “inactive”.
